Results published in article PMC5997364, “OG716: Designing a fit-for-purpose lantibiotic for the treatment of Clostridium difficile infections” (PLoS ONE, 2018).
In brackets after ≈: the same amount, converted by molar mass. Several values for one entry are separate records, joined by “and”; a condition that tells them apart may be missing. Identical values can stand only once. Like-named read-outs stand apart in the source and are kept apart here.

What was measured:
[1] = 1.0 mg/mL in water
Procedure: Five aliquots of each compound were prepared by dissolving them to 1.0 mg/mL in HPLC grade water (Fisher Scientific, USA). A total of 2 aliquots of the solution were placed in a 37°C stability chamber, and 2 aliquots were placed in a 50°C chamber. Samples were collected on days 0, 2 and 7, centrifuged at 12,000 x g for 5 min, and the supernatants were transferred to a fresh tube. Each sample was diluted 1:4 with 0.05% trifluoroacetic acid (TFA) and the purity and quantity were analyzed by HPLC as described above.

[2] = Solubility 5% D-mannitol, 5% D-mannitol in water, visual assessment
Procedure: To that end, approximately 10 mg of each compound was weighed on a high-precision balance and dispensed into a 1.5 mL microfuge tube.

C. difficile = assay: microbe, parasite or virus in culture; assay type: cell-based, Clostridium difficile
Procedure: MIC testing for C. difficile was performed by Eurofins Panlabs Taiwan LTD based on modifications from the CLSI M11-A8 broth dilution method for Bacteroides fragilis susceptibility testing. Briefly, Reinforced Clostridial Medium (RCM) was pre-reduced by over-night incubation in an anaerobic chamber (80% N2, 10% CO2, and 10% H2) prior to use. MU1140 and variants were dissolved in 100% DMSO, diluted by 2-fold serial dilution in 100% DMSO, for a total of 11 concentrations. A 4 μL aliquot of each dilution was added to 96 μL RCM in wells of a 96 well plate using a Biomek FX instrument (Beckman Coulter, USA), followed by the addition of C. difficile suspension, in RCM, 100 μL/well. The final bacterial count was 2 x 10^5 to 1 x 10^6 colony forming units/mL, in 200 μL per assay well. […] Assay plates were incubated at 35°C for 46 to 48 hr in the anaerobic chamber (A35 Anaerobic Workstation, Don Whitley, UK). Following incubation, test plates were visually examined and each well was scored for growth then the MIC was recorded as the lowest concentration that results in complete inhibition of growth. Each test substance was evaluated in duplicate. Vehicle-control and vancomycin were used as blank and positive controls, respectively. The MIC values of the vancomycin controls were consistent with the historical data against test strains (data not shown).
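For Forced degradation Δ Conc in this document: purity and concentration determined by HPLC on aqueous solutions kept in a stability chamber, with samples analyzed at day 0 and after incubation.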
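For Forced degradation Δ Purity in this document: purity and concentration determined by HPLC on aqueous solutions kept in a stability chamber, with samples analyzed at day 0 and after incubation.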

Compound | Forced degradation Δ Conc ([1]; 2 Days at 37°C) | Forced degradation Δ Purity ([1]; 2 Days at 37°C) | Forced degradation Δ Conc ([1]; 2 Days at +50°C) | Forced degradation Δ Purity ([1]; 2 Days at +50°C) | Forced degradation Δ Conc ([1]; 7 Days at 37°C) | Forced degradation Δ Purity ([1]; 7 Days at 37°C) | Forced degradation Δ Conc ([1]; 7 Days at +50°C) | Forced degradation Δ Purity ([1]; 7 Days at +50°C) | MIC 50 (C. difficile) | MIC 90 (C. difficile) | MIC Mode (C. difficile) | MIC Range (C. difficile) | Minimum Inhibitory Concentration C. difficile 103-1 (C. difficile) | Minimum Inhibitory Concentration C. difficile 107-1 (C. difficile) | Minimum Inhibitory Concentration C. difficile ATCC 9689 (C. difficile) | Minimum Inhibitory Concentration C. difficile ATCC 43597 (C. difficile) | Minimum Inhibitory Concentration C. difficile ATCC BAA-1805 (C. difficile) | Minimum Inhibitory Concentration C. difficile ATCC BAA-1808 (C. difficile) | Minimum Inhibitory Concentration C. difficile ATCC BAA-1874 (C. difficile) | Minimum Inhibitory Concentration C. difficile ATCC BAA-1875 (C. difficile) | also measured
C=C1NC(=O)[C@H](Cc2c[nH]c3ccccc23)NC(=O)[C@H](NC(=O)[C@H](CCCCN)NC(=O)[C@@H](N)[C@@H](C)CC)CSC[C@@H](C(=O)N[C@H]2C(=O)N3CCC[C@H]3C(=O)NCC(=O)N[C@H](C(=O)N[C@@H](C)C(=O)N[C@@H](CC(N)=O)C(=O)N/C(=C\C)C(=O)NCC(=O)N[C@@H]3CSC[C@@H]4NC(=O)[C@H](Cc5ccccc5)NC(=O)[C@@H](CS/C=C\NC4=O)NC(=O)[C@H](CC(N)=O)NC(=O)[C@H](Cc4ccccc4)NC3=O)CS[C@H]2C)NC(=O)[C@H](CC(C)C)NC1=O [OG718] | -9.1% and -9% | -2.07% | -29.4% and -29% | -4.90% | -21% | -7.42% | -43.8% and -44% | -12.84% | 0.5 µg/mL (≈ 0.23 µM) | 1 µg/mL (≈ 0.46 µM) | 0.5 µg/mL (≈ 0.23 µM) | 0.25 to 1 µg/mL | 0.25 µg/mL | 0.5 µg/mL | 0.5 µg/mL | 0.5 µg/mL | 0.5 µg/mL | 0.25 µg/mL | 0.5 µg/mL | 1 µg/mL | solubility [2]: > 24 mg/mL
C=C1NC(=O)[C@H](Cc2c[nH]c3ccccc23)NC(=O)[C@H](NC(=O)[C@H](CCCCN)NC(=O)[C@@H](N)C(C)C)CSC[C@@H](C(=O)N[C@H]2C(=O)N3CCC[C@H]3C(=O)NCC(=O)N[C@H](C(=O)N[C@@H](C)C(=O)N[C@@H](CC(N)=O)C(=O)N/C(=C\C)C(=O)NCC(=O)N[C@@H]3CSC[C@@H]4NC(=O)[C@H](Cc5ccc(O)cc5)NC(=O)[C@@H](CS/C=C\NC4=O)NC(=O)[C@H](CC(N)=O)NC(=O)[C@H](Cc4ccccc4)NC3=O)CS[C@H]2C)NC(=O)[C@H](CC(C)C)NC1=O [OG716] | -7.4% and -7% | -0.31% | -16.9% and -17% | -3.67% | -14.8% and -15% | -5.20% | -47% | -19.77% | 0.25 µg/mL (≈ 0.115 µM) | 0.5 µg/mL (≈ 0.23 µM) | 0.5 µg/mL (≈ 0.23 µM) | 0.25 to 0.5 µg/mL | 0.25 µg/mL | 0.5 µg/mL | 0.5 µg/mL | 0.25 µg/mL | 0.25 µg/mL | 0.25 µg/mL | 0.5 µg/mL | 0.5 µg/mL | solubility [2]: 12 to 18 mg/mL (≈ 5520 to 8280 µM)
C=C1NC(=O)[C@H](Cc2c[nH]c3ccccc23)NC(=O)[C@H](NC(=O)[C@H](CCCCN)NC(=O)[C@@H](N)CC(C)C)CSC[C@@H](C(=O)N[C@H]2C(=O)N3CCC[C@H]3C(=O)NCC(=O)N[C@H](C(=O)N[C@@H](C)C(=O)N[C@@H](CC(N)=O)C(=O)N/C(=C\C)C(=O)NCC(=O)N[C@@H]3CSC[C@@H]4NC(=O)[C@H](Cc5ccc(O)cc5)NC(=O)[C@@H](CS/C=C\NC4=O)NC(=O)[C@H](CC(N)=O)NC(=O)[C@H](Cc4ccccc4)NC3=O)CS[C@H]2C)NC(=O)[C@H](CC(C)C)NC1=O [OG712] | -4.6% and -5% | -0.21% | -8.7% and -9% | -3.01% | -9.3% and -9% | -4.63% | -45.2% and -45% | – | 0.25 µg/mL (≈ 0.114 µM) | 0.5 µg/mL (≈ 0.228 µM) | 0.25 µg/mL (≈ 0.114 µM) | 0.125 to 0.5 µg/mL | 0.125 µg/mL | 0.5 µg/mL | 0.5 µg/mL | 0.25 µg/mL | 0.25 µg/mL | 0.25 µg/mL | 0.25 µg/mL | 0.5 µg/mL | solubility [2]: 12 mg/mL (≈ 5480 µM)
C=C1NC(=O)[C@H](Cc2c[nH]c3ccccc23)NC(=O)[C@H](NC(=O)[C@H](CCCCN)NC(=O)[C@@H](N)[C@@H](C)CC)CSC[C@@H](C(=O)N[C@H]2C(=O)N3CCC[C@H]3C(=O)NCC(=O)N[C@H](C(=O)N[C@@H](C)C(=O)N[C@@H](CC(N)=O)C(=O)N/C(=C\C)C(=O)NCC(=O)N[C@@H]3CSC[C@@H]4NC(=O)[C@H](Cc5ccc(O)cc5)NC(=O)[C@@H](CS/C=C\NC4=O)NC(=O)[C@H](CC(N)=O)NC(=O)[C@H](Cc4ccccc4)NC3=O)CS[C@H]2C)NC(=O)[C@H](CC(C)C)NC1=O [OG706] | -11.3% and -11% | -1.15% | -23% | -8.05% | -20% | -6.64% | -50.1% and -50% | -21.46% | 0.5 µg/mL (≈ 0.228 µM) | 1 µg/mL (≈ 0.457 µM) | 0.5 µg/mL (≈ 0.228 µM) | 0.125 to 1 µg/mL | 0.125 µg/mL | 1 µg/mL | 0.5 µg/mL | 0.25 µg/mL | 0.25 µg/mL | 0.5 µg/mL | 0.5 µg/mL | 0.5 µg/mL | solubility [2]: 18 to 24 mg/mL (≈ 8220 to 11000 µM)
C=C1NC(=O)[C@H](Cc2c[nH]c3ccccc23)NC(=O)[C@H](NC(=O)[C@H](CCCCN)NC(=O)[C@@H](N)CC(C)C)CSC[C@@H](C(=O)N[C@H]2C(=O)N3CCC[C@H]3C(=O)NCC(=O)N[C@H](C(=O)N[C@@H](C)C(=O)N[C@@H](C)C(=O)N/C(=C\C)C(=O)NCC(=O)N[C@@H]3CSC[C@@H]4NC(=O)[C@H](Cc5ccc(O)cc5)NC(=O)[C@@H](CS/C=C\NC4=O)NC(=O)[C@H](CC(N)=O)NC(=O)[C@H](Cc4ccccc4)NC3=O)CS[C@H]2C)NC(=O)[C@H](CC(C)C)NC1=O [OG713] | -11.9% and -12% | -0.06% | -16.9% and -17% | -1.51% | -8.8% and -9% | -0.56% | -41% | -6.98% | 0.5 µg/mL (≈ 0.233 µM) | 0.5 µg/mL (≈ 0.233 µM) | 0.5 µg/mL (≈ 0.233 µM) | 0.25 to 0.5 µg/mL | 0.25 µg/mL | 0.5 µg/mL | 0.5 µg/mL | 0.5 µg/mL | 0.25 µg/mL | 0.5 µg/mL | 0.5 µg/mL | 0.5 µg/mL | –
C=C1NC(=O)[C@H](Cc2c[nH]c3ccccc23)NC(=O)[C@H](NC(=O)[C@H](CCCCN)NC(=O)[C@@H](N)CC(C)C)CSC[C@@H](C(=O)N[C@H]2C(=O)N3CCC[C@H]3C(=O)NCC(=O)N[C@H](C(=O)N[C@@H](C)C(=O)N[C@@H](CC(=O)O)C(=O)N/C(=C\C)C(=O)NCC(=O)N[C@@H]3CSC[C@@H]4NC(=O)[C@H](Cc5ccc(O)cc5)NC(=O)[C@@H](CS/C=C\NC4=O)NC(=O)[C@H](CC(N)=O)NC(=O)[C@H](Cc4ccccc4)NC3=O)CS[C@H]2C)NC(=O)[C@H](CC(C)C)NC1=O [OG705] | -11.4% and -11% | -0.29% | -11% | -1.32% | -12.3% and -12% | -0.61% | -26% | -3.22% | 1 µg/mL (≈ 0.457 µM) | 2 µg/mL (≈ 0.913 µM) | 1 µg/mL (≈ 0.457 µM) | 0.5 to 2 µg/mL | 0.5 µg/mL | 2 µg/mL | 1 µg/mL | 1 µg/mL | 1 µg/mL | 1 µg/mL | 1 µg/mL | 1 µg/mL | –
